BindingDB's records for PubMed 1706470 (Abbott Laboratories, 1991)

Molecular target: T1, Gastrin/cholecystokinin type B receptor (Cavia porcellus, UniProt H0VZC5)
T1 sequence (H0VZC5 whole entry): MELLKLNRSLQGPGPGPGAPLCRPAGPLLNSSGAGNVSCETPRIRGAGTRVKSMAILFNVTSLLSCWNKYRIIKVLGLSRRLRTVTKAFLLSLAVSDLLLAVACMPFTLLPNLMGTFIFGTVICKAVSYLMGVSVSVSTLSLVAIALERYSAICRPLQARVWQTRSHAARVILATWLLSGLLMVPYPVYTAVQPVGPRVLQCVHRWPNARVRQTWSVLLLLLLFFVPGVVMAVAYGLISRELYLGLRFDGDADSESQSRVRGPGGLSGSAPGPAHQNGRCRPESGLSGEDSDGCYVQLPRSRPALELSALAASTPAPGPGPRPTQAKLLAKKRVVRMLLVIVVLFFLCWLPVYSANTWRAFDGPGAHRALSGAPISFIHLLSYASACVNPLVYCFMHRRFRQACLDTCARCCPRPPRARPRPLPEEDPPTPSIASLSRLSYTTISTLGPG

CC(C)(C)OC(=O)NC(Cc1c[nH]c2ccccc12)C(=O)N(C(=O)C(N)Cc1ccccc1)C(=O)C(CC(=O)O)NC(=O)C(N)CCCCNC(=O)OCc1ccccc1 (stereo unspecified) [A-57282]
Ki: 510 nM
